Reference: PubChem BioAssay (NCI)
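Values below derive from 48-hour exposures of cells grown in 96-well plates, with endpoints linearly interpolated between the two concentrations bracketing the appropriate inhibition level. TGI is the concentration that stops growth completely.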

Legend:
Assay in all cases: growth of human tumour cells (NCI), 48 h
ACHN renal = system: ACHN renal
OVCAR-4 ovarian = system: OVCAR-4 ovarian
DU-145 prostate = system: DU-145 prostate
HCC-2998 colon = system: HCC-2998 colon
PC-3 prostate = system: PC-3 prostate
SF-295 CNS = system: SF-295 CNS
MALME-3M melanoma = system: MALME-3M melanoma
CAKI-1 renal = system: CAKI-1 renal
NCI/ADR-RES ovarian = system: NCI/ADR-RES ovarian
RPMI-8226 leukemia = system: RPMI-8226 leukemia
OVCAR-3 ovarian = system: OVCAR-3 ovarian
SR leukemia = system: SR leukemia
LOX IMVI melanoma = system: LOX IMVI melanoma
OVCAR-8 ovarian = system: OVCAR-8 ovarian
SK-MEL-28 melanoma = system: SK-MEL-28 melanoma

SMILES | TGI (ACHN renal) [µM] | TGI (OVCAR-4 ovarian) [µM] | TGI (DU-145 prostate) [µM] | TGI (HCC-2998 colon) [µM] | TGI (PC-3 prostate) [µM] | TGI (SF-295 CNS) [µM] | TGI (MALME-3M melanoma) [µM] | TGI (CAKI-1 renal) [µM] | TGI (NCI/ADR-RES ovarian) [µM] | TGI (RPMI-8226 leukemia) [µM] | TGI (OVCAR-3 ovarian) [µM] | TGI (SR leukemia) [µM] | TGI (LOX IMVI melanoma) [µM] | TGI (OVCAR-8 ovarian) [µM] | TGI (SK-MEL-28 melanoma) [µM]
Cc1c(C)c2ccc(OCC(O)COC(C)C)c(C)c2oc1=O (stereo unspecified) | > 100 | > 10 | > 100 | 43.4 | > 100 | > 100 | 30.3 | > 100 | > 100 | 44.4 | > 100 | 87.4 | 42.2 | > 100 | > 100
Cc1ccc([N+](=O)[O-])cc1S(=O)(=O)Nc1ccc(C2=NN(S(=O)(=O)c3cc([N+](=O)[O-])ccc3C)C(c3ccccc3)C2)cc1 (stereo unspecified) | > 100 | > 100 | > 100 | 59.8 | 98.8 | > 100 | 62.8 | > 100 | 81.1 | 76.1 | 89.4 | > 100 | > 100 | > 100 | > 100
N#Cc1ccc(C(O)C(F)(F)c2nc3ccccc3o2)cc1 (stereo unspecified) | > 100 | > 100 | > 100 | > 100 | > 100 | > 100 |  | > 100 | > 100 | > 100 |  | > 100 | > 100 | > 100 | > 100
Cc1ccc(CC2(C(=O)O)Cc3ccc(C)cc3C2)cc1 (stereo unspecified) | > 100 | > 100 | > 100 | > 100 | > 100 | > 100 | > 100 | > 100 | > 100 | > 100 | > 100 | > 100 | > 100 | > 100 | > 100
Cc1cc(S(=O)(=O)NC2=NCc3nc4ccccc4n32)c(S)cc1Cl | > 100 | 83.2 | > 100 | 35.7 | 55.6 | 37.6 | 56.2 | > 100 | 54.6 | 47.6 | 40.3 | 49.4 | 35 | > 100 | > 100
CCn1cc2c(=O)n3ncn(-c4ccc(Br)cc4)c3nc2n1 | > 100 | > 100 | > 100 | > 100 | > 100 | > 100 | > 100 | > 100 | > 100 | > 100 | > 100 | > 100 |  | > 100 | > 100
CC1=NN(c2cccc(Cl)c2)C2(SCC(=O)N2c2nc3ccccc3s2)C1=CC=Cc1ccccc1 (stereo unspecified) | 65.9 | > 100 | 68.6 | > 100 | > 100 | > 100 |  | > 100 | > 100 | > 100 | > 100 | 61.8 | > 100 | > 100 | > 100
Oc1c(Br)cc(/C=C/c2ccnc(/C=C/c3cc(Br)c(O)c(Br)c3)c2)cc1Br | > 100 | 87.2 | 39.1 | > 100 | 39 | > 100 |  | > 100 | 92.6 | 51.6 | 53.1 | 45.9 | > 100 | 83.9 | > 100
Cc1ccc(O)c(C(c2cccc(C(c3cc(C)ccc3O)c3cc(C)ccc3O)c2)c2cc(C)ccc2O)c1 | 3.13 | 3.73 | 2.84 | 3.48 | 3.29 | 3.91 | 3.77 | 3.04 | 7.66 | 3.31 | 4.35 | 7.55 |  | 3.87 | 3.46
Cc1ccc2c(=O)cc(-c3sccc3C)[nH]c2n1 | > 54.5 | > 100 | > 67.3 | 7.13 | > 28 | > 100 | > 69.1 | > 100 | 0.693 |  | > 100 | > 61.1 | > 38.1 | > 31.8 | 
COc1ccc(N=c2oc3ccccc3cc2C(N)=O)cc1 | 37.1 |  | > 100 | > 100 | > 100 | 75.1 |  | 32.4 | > 100 | > 100 | > 100 | > 100 | > 100 | > 100 | > 100
COc1cc2c(cc1OC)OC(c1c(OC)ccc(OC)c1O)CC2 (stereo unspecified) | > 100 | > 100 | > 100 | > 100 | > 100 | > 100 | > 100 | > 100 | > 100 | > 100 | > 100 | > 100 | > 100 | > 100 | > 100
CCOC(=O)C(C(=O)OCC)=C1SC(=Nc2ccccc2)C(=Nc2ccccc2)N1c1ccccc1 | > 100 |  | > 100 | > 100 | > 100 | > 100 | > 100 | > 100 | > 100 | > 100 | > 100 | > 100 |  | > 100 | > 100
COc1ccc2c3c1OC1C(F)C=CC4(O)C(C2)NCCC314 (stereo unspecified) | 10.8 | 7.05 | 9.71 | 12.8 | 6.92 | 21.9 | 5.56 | 6.56 | 38.3 |  | 7.07 | 4.42 | 10.4 | 14.7 | 10.7
CC(C)CC(NC(=O)C(C)(CI)Cc1ccccc1)C(=O)Nc1ccccc1 (stereo unspecified) | > 100 | > 100 | > 100 | > 100 | > 100 | > 100 | > 100 | > 100 | > 100 | > 100 | > 100 | > 100 | > 100 | > 100 | 
N#CC12C(=O)NC(=O)C1(C#N)C1C=CC2CC1 (stereo unspecified) | > 100 | > 100 | > 100 |  | > 100 | > 100 | > 100 | > 100 | > 100 | > 100 | > 100 | > 100 | > 100 | > 100 | > 100

SMILES | TGI (ACHN renal) [µM] | TGI (OVCAR-4 ovarian) [µM] | TGI (DU-145 prostate) [µM] | TGI (HCC-2998 colon) [µM] | TGI (PC-3 prostate) [µM] | TGI (SF-295 CNS) [µM] | TGI (MALME-3M melanoma) [µM] | TGI (CAKI-1 renal) [µM] | TGI (NCI/ADR-RES ovarian) [µM] | TGI (RPMI-8226 leukemia) [µM] | TGI (OVCAR-3 ovarian) [µM] | TGI (SR leukemia) [µM] | TGI (LOX IMVI melanoma) [µM] | TGI (OVCAR-8 ovarian) [µM] | TGI (SK-MEL-28 melanoma) [µM]
CC(=O)OCCn1cnc2c(NCC=C(C)C)ncnc21 | > 100 | > 100 | > 100 |  | > 100 | > 100 | > 100 | > 100 | > 100 | > 100 | > 100 | > 100 | > 100 | > 100 | > 100
O=c1c2cc(-c3ccccc3)cnc2sn1-c1ccc(Br)cc1 | > 100 | > 100 | > 100 | > 100 | > 100 | > 100 | > 100 | > 100 | > 100 | > 100 | > 100 | > 100 |  | > 100 | > 100
O=C(Nc1ccccc1)c1cc(S(=O)(=O)Nc2n[nH]c(=O)n2-c2ccccc2)c(S)cc1Cl |  | > 100 | > 100 | > 100 | > 100 |  | > 100 | > 100 | > 100 | > 100 | > 100 | > 100 | > 100 | > 100 | > 100
N#C/C(=C\c1ccc(F)cc1)c1nc(-c2cc3ccccc3oc2=O)cs1 | > 100 | > 100 | > 100 | > 100 | > 100 | 30.3 | 52.9 | > 100 | > 100 | > 100 |  | > 100 | > 100 | 71.9 | > 100
CC(=O)NC1C(OC(C)C(=O)NC(C)C(=O)NC(CCC(=O)NCCCCCNc2ccc([N+](=O)[O-])c3[nH]c4ccccc4c(=O)c23)C(N)=O)C(O)C(CO)OC1(C)OCc1ccccc1 (stereo unspecified) | > 100 | > 100 | > 100 | > 100 | > 100 | > 100 | > 100 | > 100 | > 100 | 70.1 | > 100 | > 100 | > 100 | > 100 | 
N#CC12C(=O)N3C(=NC(c4ccco4)NC3c3ccco3)C1(C#N)C(c1ccco1)NC1=C2CCCC1 (stereo unspecified) | > 100 | > 100 | > 100 | > 100 | > 100 | > 100 | > 100 | > 100 | > 100 | > 100 |  | > 100 | > 100 | > 100 | > 100
Cc1ccc2c(c1)C(=C(C#N)C#N)CCCS2(=O)=O | > 100 | > 100 | > 100 | > 100 | > 100 | > 100 |  | > 100 | > 100 | > 100 | > 100 | > 100 | > 100 | > 100 | > 100
CC1=NN(c2nc(N)nc(CN3CCOCC3)n2)C(C)(C)C1 | > 100 | 45.7 | > 100 | > 100 | > 100 | > 100 |  | 40.1 | > 100 | > 100 | > 100 | > 100 | 28.5 | > 100 | > 100
O=c1oc2ccc3ccccc3c2cc1-c1nnc(Nc2ccccc2)s1 | 27.2 | 38.8 | 55.5 | > 100 | 36.6 | 83.3 |  | > 100 | > 100 | 50.9 | 31.4 | 81.7 |  |  | 
CSC12c3cc(C)n(-c4ccc([N+](=O)[O-])cc4)c3CC(C)(C)CN1C(=O)C2Oc1ccccc1 (stereo unspecified) | > 100 | > 100 | > 100 | > 100 | > 100 | > 100 |  | > 100 | > 100 | > 100 | > 100 | > 100 | > 100 | > 100 | > 100
COc1ccc(C(CC2(c3ccc(OC)cc3)SCCCS2)NC(C)=O)cc1 (stereo unspecified) | > 100 |  | > 100 | > 100 | 69 | > 100 | > 100 | > 100 | 73.4 | > 100 | > 100 | > 100 | > 100 | > 100 | > 100
CCN1CCC(O)(c2ccc(Oc3ccc(Cl)cc3)cc2)C(C(=O)c2ccc(Oc3ccc(Cl)cc3)cc2)C1 (stereo unspecified) | 28.2 | 32.7 | 34.3 | 25 | 21.3 | 27.4 | 35.6 | 27.3 | 39.9 | 10.9 |  | > 100 | 16.5 | 38.6 | 58.6
COc1ccc2c(c1)Cc1c(NCCN(C)C)ccc(C(=O)NCCCN(C)CCCNC(=O)c3ccc(NCCN(C)C)c4c3Nc3ccc(OC)cc3C4)c1N2 | 9.79 | 0.448 | 1.04 | 0.168 | 0.838 | 3.52 | 0.209 | 11.9 | > 100 |  | 1.21 | 0.502 | 0.766 | 2.86 | 1.46
COc1ccc(S(=O)(=O)N2C(=O)CCC2C(=O)NC(N)=O)cc1 (stereo unspecified) | > 100 | > 100 | > 100 |  | > 100 | > 100 | > 100 | > 100 | > 100 | > 100 | > 100 | > 100 | > 100 | > 100 | > 100
CC[C@]12C=CCN3CC[C@@]4(c5cc(N=O)c(OC)cc5N(C)[C@H]4[C@@](O)(C(=O)OC)[C@@H]1OC(C)=O)[C@@H]32 | > 100 | > 100 | > 100 | > 100 | > 100 | > 100 | > 100 | > 100 | > 100 |  | > 100 | > 100 | > 100 | > 100 | > 100
